Data on four compounds can be found in US20030065039A1, “Biologically active 1,3-bis-aromatic-prop-2-en-1-ones, 1,3-bis-aromatic-propan-1-ones, and 1,3-bis-aromatic-prop-2-yn-1-ones” (Statens Serum Institute, priority 1997, published 2003).

The structures appear in SMILES notation. Where two headings read alike, the source gives them in different places.

Series [1] has as its system cytomegalovirus Davis strain. The series is described as follows: Activity against cytomegalovirus in HEL cells (plaque formation). It counts as cell-based. To be noted: virus plaque formation reduced by 50%, 100 PFU, values given as fractions. The method, then:
(§1) IC50 values are determined by the virus plaque formation and/or the virus cytopathic assay using standard methods well-known in the art.

Series [2] relates to cytomegalovirus AD-169 strain. The description is as above. It counts as cell-based. Conditions: virus plaque formation reduced by 50%, 100 PFU, values given as fractions. Here is the method:
as §1

Series [3] can be described thus: Preliminary 14 days oral toxicity study in rats. It counts as in vivo. To be noted: highest dose level 1000 mg/kg/day. The method, then:
A preliminary 14 days oral toxicity study in rats was carried out with 6 compounds. Observations included clinical signs, body weights, food intake, haematology, clinical chemistry and macroscopic pathology.

The subject of series [4] is TNF-α. The series is described as follows: TNF-α in lysate of stimulated human mononuclear cells (ELISA). It counts as cell-based. To be noted: cells preincubated with compound, stimulated with SPAG or LPS. Here is the method:
Therefore, experiments were performed to examine the effect of Licochalcone A and SBC-35ma on secretion of TNF-α from the stimulated cells. These experiments included detection of the cytokines in the cell lysate by ELISA and staining of the intracellular cytokines by using monoclonal antibodies against these cytokines and cytokine receptors.
Background: An ELISA detects its analyte on a solid surface through an enzyme-linked reagent.

Series [5] deals with Vero cell cultures. The series is described as follows: Cytotoxicity in Vero cell cultures. It counts as cell-based. To be noted: Vero cells; values given as fractions, footnote a not given. The source says:
In the following is reported the results from a Vero cell culture infected with different viruses. The cell culture used as well as the methods applied are well known to a person skilled in the art.

Series [6] has as its system human embryonic lung (HEL) cells. As to the kind of experiment: Cytotoxicity in human embryonic lung (HEL) cells. It counts as cell-based. To be noted: HEL cell growth reduced by 50%; values given as fractions.
In series [7] the test system is IFN-γ. The series is described as follows: IFN-γ producing human mononuclear cells (PMA+inomycin). It counts as cell-based. Conditions: for % IFN-γ producing cells / inhibition at 12.5 µg/mL: 1b Experiment 2, PMA+inomycin, 12.5 μg/ml; for % IFN-γ producing cells: DMSO Control 16.4; for inhibition of IFN-γ production: concentration of 12.5 μg/ml; for inhibition at 12.5 µg/mL: Homo sapiens. The method, then: Mitogens: LPS at a final conc. of 1 μg/ml for TNF-α and PMA+inomycin for IFN-γ.
Incubation condition: Cells and mitogen added at the same time and the compound solution added immediately after in polypropylene tubes and incubated at 37° C. in CO2 incubator overnight. The following day the cells and the supernatant were harvested for TNF-α determination.

For series [8], the system named is TNF-α. The series is described as follows: Intracellular TNF-α in human mononuclear cells (flow cytometry). It counts as cell-based. To be noted: for % TNFα- producing cells: DMSO 10.1; for inhibition at 12.5 µg/mL / inhibition at 25 µg/mL / inhibition at 3.125 µg/mL / inhibition at 6.25 µg/mL: Homo sapiens. The method, then:
[table] Incubation condition: Cells and mitogen added at the same time and the compound solution added immediately after in polypropylene tubes and incubated at 37° C. in CO2 incubator overnight. The following day the cells and the supernatant were harvested for TNF-α determination. Incubation condition: Cells and mitogen added at the same time and the compound solution added immediately after in polypropylene tubes and incubated at 37° C. in CO2 incubator overnight. The following day the cells and the supernatant were harvested for TNF-α determination.
For orientation: A flow cytometer gives signals particle by particle.

The mark [9] stands for this setting: 1b Experiment 1, LPS 0.5 μg/ml, compound 12.5 μg/ml, DMSO 13.8.
Setting [10] is: 1b Experiment 1, LPS 0.5 μg/ml, compound 25.0 μg/ml, DMSO 13.8.
The mark [11] stands for this setting: 1b Experiment 2, LPS 1 μg/ml, compound 3.125 μg/ml, DMSO 4.0.
The mark [12] stands for this setting: 1b Experiment 2, LPS 1 μg/ml, compound 6.25 μg/ml, DMSO 4.0.
The mark [13] stands for this setting: 1b Experiment 2, LPS 1 μg/ml, compound 12.5 μg/ml, DMSO 4.0.
Setting [14] is: 1b Experiment 3, LPS 1 μg/ml, compound 3.125 μg/ml.
The mark [15] stands for this setting: 1b Experiment 3, LPS 1 μg/ml, compound 6.25 μg/ml.
Where [16] appears, read: 1b Experiment 3, LPS 1 μg/ml, compound 12.5 μg/ml.
Setting [17] is: 1b Experiment 4, LPS 1 μg/ml, compound 3.125 μg/ml, DMSO 14.6.
The mark [18] stands for this setting: 1b Experiment 4, LPS 1 μg/ml, compound 6.25 μg/ml, DMSO 14.6.
Where [19] appears, read: 1b Experiment 4, LPS 1 μg/ml, compound 12.5 μg/ml, DMSO 14.6.
Setting [20] is: 1b Experiment 1, LPS 0.5 μg/ml, compound 12.5 μg/ml, read-out: % inhibition.
Setting [21] is: 1b Experiment 1, LPS 0.5 μg/ml, compound 25.0 μg/ml.
[22] abbreviates: 1b Experiment 2, LPS 1 μg/ml, compound 3.125 μg/ml.
[23] abbreviates: 1b Experiment 2, LPS 1 μg/ml, compound 6.25 μg/ml, read-out: Intracellular % inhibition.
Where [24] appears, read: 1b Experiment 2, LPS 1 μg/ml, compound 12.5 μg/ml, read-out: Intracellular % inhibition.
Setting [25] is: 1b Experiment 3, LPS 1 μg/ml, compound 6.25 μg/ml, read-out: Intracellular % inhibition.
[26] abbreviates: 1b Experiment 3, LPS 1 μg/ml, compound 12.5 μg/ml, read-out: Intracellular % inhibition.
The mark [27] stands for this setting: 1b Experiment 4, LPS 1 μg/ml, compound 3.125 μg/ml.
Where [28] appears, read: 1b Experiment 4, LPS 1 μg/ml, compound 6.25 μg/ml, read-out: Intracellular % inhibition.
[29] abbreviates: 1b Experiment 4, LPS 1 μg/ml, compound 12.5 μg/ml, read-out: Intracellular % inhibition.

In the case of `C=CC(C)(C)c1cc(/C=C/C(=O)c2ccc(O)cc2)c(OC)cc1O` [Licochalcone A], the “Antiviral activity IC50, Davis strain, Assay 1” value in series [1] was 1/50000. In addition, the “Antiviral activity IC50, AD-169 strain, Assay 1” value in series [2] is reported as 1/15000. Also, in series [3], the toxic effects entry is “No toxic effects”. For the same compound, the “intracellular TNF-α in the cell lysate (ELISA)” value in series [4] is on record as “no intracellular TNF-α present”. For the same compound, the “Minimum Cytotoxic Concentration” value in series [5] is <1/100. The “Cytotoxicity CC50” value in series [6] is listed as 1/600.
The term inhibition denotes the relative decrease from the control value, in per cent. Regarding `COc1cc(/C=C/C(=O)c2ccc(C3CCCCC3)cc2)cc(OC)c1` [PH104, 3,5-dimethoxy-4′-cyclohexylchalcone], in series [7], the “% IFN-γ producing cells” value was 17.0%. In addition, the “inhibition of IFN-γ production” value in series [7] (1b Experiment 3) and in series [7] (1b Experiment 4) was “no inhibition” throughout. The inhibition at 12.5 µg/mL was 0% in series [7]; 83% in series [8] (setting [20]); 58% in series [8] (setting [24]); 88% in series [8] (setting [26]); 93% in series [8] (setting [29]). Moreover, the “% TNF-α producing cells” value in series [8] (setting [9]) is on record as 2.4%; in series [8] (setting [10]), 1.4%; in series [8] (setting [11]) it was 2.4%; in series [8] (setting [12]) it was 1.0%; in series [8] (setting [13]), 1.7%; in series [8] (setting [17]) it was 3.0%. In addition, the “% TNF-α producing cells” value in series [8] (setting [18]) was 0.8%; in series [8] (setting [19]), 1.0%. Also, the “% TNFα- producing cells” value in series [8] (setting [14]) was determined as 2.9%; in series [8] (setting [15]), 1.1%; in series [8] (setting [16]), 1.2%. This compound had an inhibition at 25 µg/mL in series [8] (setting [21]) of 90%. Besides, the values for the inhibition at 3.125 µg/mL in series [8] (setting [22]), in series [8] (setting [14]) and in series [8] (setting [27]) were 40%, 71% and 79%, respectively. In addition, the results for the inhibition at 6.25 µg/mL in series [8] (setting [23]), in series [8] (setting [25]) and in series [8] (setting [28]) were 75%, 89% and 95%, respectively.
With `COc1cc(/C=C/C(=O)c2ccccc2F)cc(OC)c1` [PH135, 2′-fluoro-3,5-dimethoxychalcone], in series [7], the “% IFN-γ producing cells” value was found to be 14.2%. The “inhibition of IFN-γ production” value in series [7] (1b Experiment 3) and in series [7] (1b Experiment 4) was “no inhibition” in each case. For the same compound, the inhibition at 12.5 µg/mL in series [7] turned out to be 14%; in series [8] (setting [20]), 83%; in series [8] (setting [24]), 50%; in series [8] (setting [26]), 90%; in series [8] (setting [29]), 88%. The “% TNF-α producing cells” value in series [8] (1b Experiment 1, LPS 0.5 μg/ml, compound 6.25 μg/ml, DMSO 13.8) is listed as 4.1%; in series [8] (setting [9]), 2.3%; in series [8] (setting [10]), 2.2%; in series [8] (setting [11]) it was 4.3%; in series [8] (setting [12]), 1.7%; in series [8] (setting [13]) it was 2.0%. Besides, the results for the “% TNF-α producing cells” value in series [8] (setting [17]), in series [8] (setting [18]) and in series [8] (setting [19]) were 3.5%, 2.1% and 1.8%, respectively. Also, the entries for the “% TNFα- producing cells” value in series [8] (setting [14]), in series [8] (setting [15]) and in series [8] (setting [16]) were 1.7%, 1.2% and 1.0%, respectively. Besides, the inhibition at 6.25 µg/mL in series [8] (1b Experiment 1, LPS 0.5 μg/ml, compound 6.25 μg/ml, read-out: % inhibition) is 70%; in series [8] (setting [23]) it was 58%; in series [8] (setting [25]), 88%; in series [8] (setting [28]) it was 86%. Moreover, at 25 µg/mL the inhibition in series [8] (setting [21]) was 84%. Besides, the inhibition at 3.125 µg/mL in series [8] (setting [22]) turned out to be 0%; in series [8] (setting [14]) it was 83%; in series [8] (setting [27]), 76%.
`C=CCOc1ccc(C(=O)/C=C/c2cc(OC)cc(OC)c2)cc1` [SBC-35ma, 3,5-dimethoxy-4′-allyloxychalcone]: the “Antiviral activity IC50, Davis strain, Assay 1” value in series [1] is recorded as <1/60. Moreover, in series [2], the “Antiviral activity IC50, AD-169 strain, Assay 1” value is recorded as <1/60. Moreover, the toxic effects entry in series [3] is “No toxic effects”. Further, the “intracellular TNF-α in the cell lysate (ELISA)” value in series [4] was “no intracellular TNF-α present”. Besides, in series [5], the “Minimum Cytotoxic Concentration” value is <1/100. Besides, in series [6], the “Cytotoxicity CC50” value is recorded as <1/60.
